According to patent US10596151B2, “Methods and pharmaceutical compositions for reducing arterial stiffness with a combination of a therapeutic agent blocking the angiotensin receptor and a therapeutic agent inhibiting the NEP enzyme” (Novartis AG, priority 2015, dated 2020):
Marks after values point to notes of the source that are not given here.

Legend:
[1] = test system: elderly patients (≥60 years) with essential hypertension; test: PARAMETER study: safety and tolerability assessments
Text: The inclusion criteria in the study was designed to enroll patients which met the profile of elderly patients with systolic hypertension and a wide pulse pressure, a characteristic reflective of large artery (aortic) stiffness. […] The study enrolled patient from 5 Dec. 2012 to 8 Apr. 2015.
This was a 52-week study, involving 50 centers from 12 countries (across Europe, South America, Asia and the United States). […] After 12 weeks, patients with uncontrolled BP (msSBP>140 mmHg and/or mean sitting diastolic blood pressure [msDBP]>90 mmHg) were allowed the use of add-on antihypertensives (amlodipine [2.5-5.0 mg] and then hydrochlorothiazide [6.25-25.0 mg]) as needed, at an interval of 4 weeks up to Week 24.
Safety and tolerability assessments include regular monitoring and recording of all adverse events (AEs) and concomitant medications or significant non-drug therapies. Evaluations of routine blood chemistries, blood counts with white cell differential and urine analyses, physical examinations, electrocardiograms (ECGs), and monitoring of vital signs will be performed at regular intervals.

[2] = test system: patients with mild-to-moderate essential hypertension; details: LCZ696 100, 200 and 400 mg once daily; cited from earlier work
[3] = test system: patients with heart failure with preserved ejection fraction; details: cited from earlier work
[4] = test system: elderly patients (≥60 years) with essential hypertension; test: […] study: mean sitting (brachial) blood pressure and pulse pressure; format: in vivo, human; details: for Change from baseline to 12 weeks, msDBP / Change from baseline to 52 weeks, msDBP: mean sitting diastolic BP; for Change from baseline to 12 weeks, msDBP / Change from baseline to 52 weeks, msDBP / Change from baseline to 12 weeks, msPP / Change from baseline to 52 weeks, msPP / Change from baseline to 12 weeks, msSBP / Change from baseline to 52 weeks, msSBP: mean; for Change from baseline to 12 weeks, msMAP / Change from baseline to 52 weeks, msMAP: mean sitting mean arterial pressure; for Change from baseline to 12 weeks, msPP / Change from baseline to 52 weeks, msPP: mean sitting pulse pressure; for Change from baseline to 12 weeks, msSBP / Change from baseline to 52 weeks, msSBP: mean sitting systolic BP
Text: The study enrolled patient from 5 Dec. 2012 to 8 Apr. 2015.
Superiority testing is also planned for the key secondary efficacy assessment, i.e. the reduction in mean central aortic PP (CAPP) after 12 weeks of treatment, and other secondary efficacy assessments such as mean CASP and CAPP after 52 weeks of treatment. Mean aPWV, msSBP, msDBP, msPP, mean ambulatory (ma) BP, maPP, and MAP will also be measured after 12 and 52 weeks of treatment.

Compound | Change from baseline to 12 weeks, msDBP ([4]; 12 weeks) [mmHg] | Change from baseline to 52 weeks, msDBP ([4]; 52 weeks) [mmHg] | Change from baseline to 12 weeks, msMAP ([4]; 12 weeks) [mmHg] | Change from baseline to 52 weeks, msMAP ([4]; 52 weeks) [mmHg] | Change from baseline to 12 weeks, msPP ([4]; 12 weeks) [mmHg] | Change from baseline to 52 weeks, msPP ([4]; 52 weeks) [mmHg] | Change from baseline to 12 weeks, msSBP ([4]; 12 weeks) [mmHg] | Change from baseline to 52 weeks, msSBP ([4]; 52 weeks) [mmHg] | also measured
CCCCC(=O)N(Cc1ccc(-c2ccccc2-c2nn[n-]n2)cc1)C(C(=O)[O-])C(C)C.CCCCC(=O)N(Cc1ccc(-c2ccccc2-c2nn[n-]n2)cc1)C(C(=O)[O-])C(C)C.CCOC(=O)C(C)CC(Cc1ccc(-c2ccccc2)cc1)NC(=O)CCC(=O)[O-].CCOC(=O)C(C)CC(Cc1ccc(-c2ccccc2)cc1)NC(=O)CCC(=O)[O-].O.O.O.O.O.[Na+].[Na+].[Na+].[Na+].[Na+].[Na+] [LCZ696, trisodium [3-((1S,3R)-1-biphenyl-4-ylmethyl-3-ethoxycarbonyl-1-butylcarbamoyl) propionate-(S)-3′-methyl-2′-(pentanoyl{2″-(tetrazol-5-ylate)biphenyl-4′-ylmethyl}amino)butyrate]hemipentahydrate] | −5.3 | −8.1 | −12.2 | −13.9 | −8.0 | −9.1 | −13.3 | −17.2 | percentage of patients who discontinued the study ([1]; 52-week study): 19.7%; percentage of patients who discontinued the study due to an AE ([1]; 52-week study): 6.6%; percentage of patients with AEs ([1]; 52-week study): 57.6%; percentage of patients with SAEs ([1]; 52-week study): 7.0%; tolerability of the regimen ([1]; 52-week study): well tolerated; BP reductions vs corresponding doses of valsartan alone (160 and 320 mg) [2]: greater BP reductions than corresponding doses of valsartan alone; tolerability [2]: well tolerated; reduction of NT-proBNP vs valsartan alone ([3]; at 12 weeks): to a greater extent than valsartan alone; tolerability ([3]; heart failure with preserved ejection fraction): well tolerated; Between-treatment difference, msMAP, 12 weeks ([4]; LCZ696 regimen vs olmesartan regimen, 12 weeks, P < 0.001): −3.6 (0.95)* mmHg; Between-treatment difference, msMAP, 52 weeks ([4]; LCZ696 regimen vs olmesartan regimen, 52 weeks): −1.5 (0.89) mmHg
CCCc1nc(C(C)(C)O)c(C(=O)O)n1Cc1ccc(-c2ccccc2-c2nnn[nH]2)cc1 [Olmesartan, reference compound] | −5.2 | −8.5 | −8.6 | −12.4 | −4.5 | −7.6 | −9.7 | −16.0 | percentage of patients who discontinued the study ([1]; human, in vivo, 52 weeks): 18.7%; percentage of patients who discontinued the study due to an AE ([1]; human, in vivo, 52 weeks): 5.3%; percentage of patients with AEs ([1]; human, in vivo, 52 weeks): 53.8%; percentage of patients with SAEs ([1]; human, in vivo, 52 weeks): 5.8%
